From patent US20120302609A1, “Pyrazolines for the Modulation of PKM2” (Dynamix Pharmaceuticals LTD., priority 2011, published 2012)

Molecular target: T1, PKM2, human recombinant (Homo sapiens, UniProt P14618)
T1 construct: purchased BPS 50295
Experiment: PKM2 enzymatic activity assay (Kinase-Glo Plus luminescence);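 on Max activity Group: percent increase over no-compound signal after subtracting the no-PKM2 background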
Format: biochemical
Settings: for AC50: 0.1 nM PKM2, 0.1 mM ADP, 0.5 mM PEP, 1 hour, room temperature, read-out: AC50 group; for Emax: 1 h, read-out: Max activity Group; for Max activity: 30 μM
Method: PKM2 performs the following enzymatic reaction, where the PKM2 substrates, PEP (phosphoenolpyruvate) and ADP, are converted to pyruvate and ATP as follows:
All of the enzymatic reactions were conducted in duplicates at room temperature for 1 hour in a 50 μL mixture containing: • PKM2 assay buffer (50 mM Imidazole, pH 7.2; 7 mM MgCl2; 50 mM KCl; 0.01% Tween; • and 0.05% BSA), 0.1 mM ADP, 0.5 mM PEP, 0.1 nM PKM2 enzyme (PKM2, human recombinant (BPS catalog number 50295)) and the indicated test compound. Fructose 1,6 biphosphat e, (FBP (Sigma)) was used as a positive control for activation at concentration of 0.5 mM. After enzymatic reactions, 50 μL of Kinase-Glo® Plus reagent (Promega kit) was added to each well and luminescence was measured using a BioTek Synergy™ 2 microplate reader.
PKM2 activity assays were performed in duplicates at each concentration. The luminescence data were analyzed using the computer software, GraphPad PRISM®. In the absence of the compound, the luminescence was defined as 0% activity. The percent activity in the presence of each compound was calculated according to the following equation:
% Activity=[(L−Lb)/(Lt−Lb)−1]×100%
where L=the luminescence in the presence of the test compound, Lb=the luminescence in the absence of PKM2, and Lt=the luminescence intensity in the absence of the test compound. The % activity values versus a series of compound concentrations were plotted using non-linear regression analysis of Sigmoidal dose-response curve generated with the equation Y=B+(T−B)/1+10^((LogEC50-X)×Hill Slope), where Y=percent activity, B=minimum percent activity, T=maximum percent activity, X=logarithm of compound and Hill Slope=slope factor or Hill coefficient. The AC50 values, shown in Table 2 were determined for the indicated test compounds as the concentration causing a half-maximal percent activity.

[1] = maximum percent activity, luminescence without compound = 0% activity

T1 sequence (P14618 whole entry): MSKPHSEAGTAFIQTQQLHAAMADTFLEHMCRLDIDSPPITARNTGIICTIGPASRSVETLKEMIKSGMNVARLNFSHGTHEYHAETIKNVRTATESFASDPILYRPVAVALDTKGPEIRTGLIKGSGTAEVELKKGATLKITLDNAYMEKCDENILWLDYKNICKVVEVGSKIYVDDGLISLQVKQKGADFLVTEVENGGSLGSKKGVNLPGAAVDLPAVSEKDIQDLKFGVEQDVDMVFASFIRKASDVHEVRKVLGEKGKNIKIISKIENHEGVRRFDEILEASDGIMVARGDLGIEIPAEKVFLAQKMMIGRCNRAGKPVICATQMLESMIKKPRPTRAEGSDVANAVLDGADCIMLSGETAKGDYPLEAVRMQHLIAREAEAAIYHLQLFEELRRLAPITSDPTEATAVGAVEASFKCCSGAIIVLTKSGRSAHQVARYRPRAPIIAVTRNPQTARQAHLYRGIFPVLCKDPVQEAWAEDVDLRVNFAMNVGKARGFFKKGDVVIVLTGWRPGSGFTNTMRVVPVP

SMILES | AC50 | Emax [1] | Max activity Group [1] | Max activity
COc1ccc(C2CC(c3ccc(NS(=O)(=O)c4ccc(OC)cc4)cc3)=NN2C(C)=O)cc1 (racemic) [Compound 19A, N-(4-(1-Acetyl-5-(4-methoxyphenyl)-4,5-dihydro-1H-pyrazol-3-yl)phenyl)-4-methoxy benzenesulfonamide] | ≤ 1000 nM | ≥ 200% | – | –
CCS(=O)(=O)Nc1ccc(C2=NN(C(C)=O)C(c3ccc(OC)cc3)C2)cc1 (single isomer, unassigned) [Compound 2A, N-(4-(1-Acetyl-5-(4-methoxyphenyl)-4,5-dihydro-1H-pyrazol-3-yl)phenyl)ethane sulfonamide] | ≤ 1000 nM | – | – | –
CCS(=O)(=O)Nc1ccc(C2=NN(C(C)=O)C(c3ccc(OC)cc3)C2)cc1 (single isomer, unassigned) [Compound 3A] | ≤ 1000 nM | 130 to 200% | – | –
COc1ccc(C2CC(c3ccc(NS(=O)(=O)c4ccc(F)cc4)cc3)=NN2C(C)=O)cc1 (single isomer, unassigned) [Compound 12A] | 10000 to 100000 nM | ≤ 130% | – | –
CCS(=O)(=O)Nc1ccc(C2=NN(C(C)=O)C(c3ccc4c(c3)OCCO4)C2)cc1 (stereo not shown) [Compound 4A] | ≤ 1000 nM | 130 to 200% | – | –
COc1ccc(C2CC(c3ccc(NS(=O)(=O)c4c(F)cccc4F)cc3)=NN2C(C)=O)cc1 (stereo not shown) [Compound 5A] | ≤ 1000 nM | ≥ 200% | – | –
COc1ccc(C2CC(c3ccc(NS(=O)(=O)c4ccc5c(c4)OCCO5)cc3)=NN2C(C)=O)cc1 (stereo not shown) [Compound 7A, N-(4-(1-acetyl-5-(4-methoxyphenyl)-4,5-dihydro-1H-pyrazol-3-yl)phenyl)-2,3-dihydrobenzo[b][1,4]dioxine-6-sulfonamide] | 1000 to 10000 nM | 130 to 200% | – | –
CC(=O)N1N=C(c2ccc(NS(=O)(=O)c3ccc(F)cc3)cc2)CC1c1ccc2c(c1)OCCO2 (stereo not shown) [Compound 8A, N-(4-(1-Acetyl-5-(2,3-dihydrobenzo[b][1,4]dioxin-6-yl)-4,5-dihydro-1H-pyrazol-3-yl)phenyl)-4-fluorobenzenesulfonamide] | 1000 to 10000 nM | 130 to 200% | – | –
CC(=O)N1N=C(c2ccc3c(c2)CCN3S(C)(=O)=O)CC1c1ccc2c(c1)OCCO2 (stereo not shown) [Compound 9A, 1-(5-(2,3-dihydrobenzo[b][1,4]dioxin-6-yl)-3-(1-(methylsulfonyl)indolin-5-yl)-4,5-dihydro-1H-pyrazol-1-yl)ethanone] | 10000 to 100000 nM | ≤ 130% | – | –
CCNS(=O)(=O)c1ccc(C2=NN(C(C)=O)C(c3ccc(OC)cc3)C2)cc1 (stereo not shown) [Compound 10A, 4-(1-acetyl-5-(4-methoxyphenyl)-4,5-dihydro-1H-pyrazol-3-yl)-N-ethylbenzenesulfonamide] | ≤ 1000 nM | 130 to 200% | – | –
COc1ccc(C2CC(c3ccc(NS(=O)(=O)c4c(F)cccc4F)cc3)=NN2C(=O)c2ccco2)cc1 (stereo not shown) [Compound 11A, 2,6-Difluoro-N-(4-(1-(furan-2-carbonyl)-5-(4-methoxyphenyl)-4,5-dihydro-1H-pyrazol-3-yl)phenyl)benzenesulfonamide] | 1000 to 10000 nM | ≥ 200% | – | –
COc1ccc(C2CC(c3ccc(NS(=O)(=O)c4c(F)cccc4F)cc3)=NN2C(=O)c2ccccn2)cc1 (stereo not shown) [Compound 14A, 2,6-Difluoro-N-(4-(5-(4-methoxyphenyl)-1-picolinoyl-4,5-dihydro-1H-pyrazol-3-yl)phenyl)benzenesulfonamide] | 1000 to 10000 nM | ≤ 130% | – | –
COc1ccc(C2CC(c3ccc(NS(=O)(=O)c4c(F)cccc4F)cc3)=NN2C(=O)c2cccnc2)cc1 (stereo not shown) [Compound 15A, 2,6-difluoro-N-(4-(5-(4-methoxyphenyl)-1-nicotinoyl-4,5-dihydro-1H-pyrazol-3-yl)phenyl)benzenesulfonamide] | 1000 to 10000 nM | ≥ 200% | – | –
COc1ccc(C2CC(c3ccc(NS(=O)(=O)c4ccccc4)cc3)=NN2C(C)=O)cc1 (stereo not shown) [Compound 16A] | 1000 to 10000 nM | 130 to 200% | – | –
COc1ccc(C2CC(c3ccc(NS(=O)(=O)c4ccccc4)cc3)=NN2C(C)=O)cc1 (stereo not shown) [Compound 17A, N-(4-(1-Acetyl-5-(4-methoxyphenyl)-4,5-dihydro-1H-pyrazol-3-yl)phenyl)benzene sulfonamide] | 1000 to 10000 nM | – | C (C: ≦130%) | –
COc1ccc(C2CC(c3ccc(NS(=O)(=O)c4ccccc4C(F)(F)F)cc3)=NN2C(C)=O)cc1 (stereo not shown) [Compound 20A] | ≤ 1000 nM | 130 to 200% | – | –
COc1cc(C2CC(c3ccc(NS(C)(=O)=O)cc3)=NN2C(C)=O)cc(OC)c1OC (stereo not shown) [Compound 56A] | – | – | – | −6% (30 μM)

Other lines, results leading:

AC50 | Emax [1] | Max activity Group [1] | Max activity | SMILES
≤ 1000 nM | ≤ 130% | – | – | CC(=O)N1N=C(c2ccc(NS(=O)(=O)c3ccc(F)cc3)cc2)CC1c1ccc(F)cc1 (racemic) [Compound 25A, N-(4-(1-Acetyl-5-(4-fluorophenyl)-4,5-dihydro-1H-pyrazol-3-yl)phenyl)-4-fluoro benzenesulfonamide]
≤ 1000 nM | ≤ 130% | – | – | CC(=O)N1N=C(c2ccc(NS(=O)(=O)c3ccc(F)cc3)cc2)CC1c1ccc(F)cc1 (single isomer, unassigned) [Compound 35A]
≤ 1000 nM | 130 to 200% | – | – | CC(=O)N1N=C(c2ccc(NS(=O)(=O)c3ccc(F)cc3)cc2)CC1c1ccc2c(c1)CCO2 (stereo not shown) [Compound 22A, N-(4-(1-Acetyl-5-(2,3-dihydrobenzofuran-5-yl)-4,5-dihydro-1H-pyrazol-3-yl)phenyl)-4-fluorobenzenesulfonamide]
1000 to 10000 nM | ≤ 130% | – | – | CC(=O)N1N=C(c2ccc(NS(=O)(=O)c3ccc(F)cc3)cc2)CC1c1ccc(F)c(F)c1 (stereo not shown) [Compound 27A, N-(4-(1-Acetyl-5-(3,4-difluorophenyl)-4,5-dihydro-1H-pyrazol-3-yl)phenyl)-4-fluoro benzenesulfonamide]
1000 to 10000 nM | ≤ 130% | – | – | COc1ccc(C2CC(c3ccc(NS(=O)(=O)c4cccc(Cl)c4)cc3)=NN2C(C)=O)cc1 (stereo not shown) [Compound 28A, N-(4-(1-Acetyl-5-(4-methoxyphenyl)-4,5-dihydro-1H-pyrazol-3-yl)phenyl)-3-chloro benzenesulfonamide]
≤ 1000 nM | 130 to 200% | – | – | COc1ccc(C2CC(c3ccc(NS(=O)(=O)c4ccc(OC)c(F)c4)cc3)=NN2C(C)=O)cc1 (stereo not shown) [Compound 44A]
≤ 1000 nM | ≤ 130% | – | – | CC(=O)N1N=C(c2ccc(NS(C)(=O)=O)cc2)CC1c1ccc2c(c1)OCO2 (stereo not shown) [Compound 52A]
1000 to 10000 nM | ≥ 200% | – | – | CCS(=O)(=O)Nc1ccc(C2=NN(C(=O)c3ccco3)C(c3ccc(OC)cc3)C2)cc1 (stereo not shown) [Compound 53A]
– | – | – | 6% (30 μM) | COc1ccc(C2CC(c3ccc(NS(C)(=O)=O)cc3)=NN2C(C)=O)cc1OC (stereo not shown) [Compound 54A]
– | – | – | −5% (30 μM) | CCS(=O)(=O)Nc1ccc(C2=NN(S(C)(=O)=O)C(c3ccc(OC)cc3)C2)cc1 (stereo not shown) [Compound 55A]
≤ 1000 nM | ≤ 130% | – | – | CCS(=O)(=O)Nc1ccc(C2=NN(C(C)=O)C(c3ccccc3F)C2)cc1 (stereo not shown) [Compound 57A]
– | – | – | 47% (30 μM) | CCS(=O)(=O)Nc1ccc(C2=NN(C(C)=O)C(c3ccc(Cl)o3)C2)cc1 (stereo not shown) [Compound 59A]
10000 to 100000 nM | 130 to 200% | – | – | CCS(=O)(=O)Nc1ccc(C2=NN(C(C)=O)C(c3cccs3)C2)cc1 (stereo not shown) [Compound 67A]
